Experimental data as given in US7056940B2, “Insecticidal 3-(2,6-disubstituted phenyl)-5-[5-arylthien-2-yl]-1,2,4-triazoles” (Dow AgroSciences LLC, priority 2001, dated 2006).

Legend:
Format in all cases: in vivo
[1] = tested on: Cabbage Looper (Trichoplusia ni); assay: Insecticidal test for cabbage looper, treated cabbage leaf disc; parameters: key: A: 90–100; B: 80–89; C: 70–79; D: 60–69; E: 50–59; F: less than 50; G: Inactive; conditions: cabbage leaf-dip, 2nd instar larvae, 5 days
Text: (§1) The compounds are useful for reducing populations of insects and mites and are useful in a method of inhibiting an insect or mite population which comprises applying to a locus of the insect or mite an effective insect- or mite-inactivating amount of a compound of formula (1). The “locus” of insects or mites is a term used herein to refer to the environment in which the insects or mites live or where their eggs are present, including the air surrounding them, the food they eat, or objects which they contact. For example, insects or mites which eat or contact edible or ornamental plants can be controlled by applying the active compound to plant parts such as the seed, seedling, or cutting which is planted, the leaves, stems, fruits, grain, or roots, or to the soil in which the roots are growing. It is contemplated that the compounds might also be useful to protect textiles, paper, stored grain, seeds, domesticated animals, buildings or human beings by applying an active compound to or near such objects. The term “inhibiting an insect or mite” refers to a decrease in the numbers of living insects or mites, or a decrease in the number of viable insect or mite eggs. The extent of reduction accomplished by a compound depends, of course, upon the application rate of the compound, the particular compound used, and the target insect or mite species. At least an inactivating amount should be used. The terms “insect-inactivating amount” and “mite-inactivating amount” are used to describe the amount, which is sufficient to cause a measurable reduction in the treated insect or mite population. Generally an amount in the range from about 1 to about 1000 ppm by weight active compound is used. For example, insects and mites which can be inhibited include, but are not limited to: • Lepidoptera—Heliothis spp., Helicoverpa spp., Spodoptera spp., Mythimna unipuncta, Agrotis ipsilon, Earias spp., Euxoa auxiliaris, Trichoplusia ni, Anticarsia gemmatalis, Rachiplusia nu, Plutella xylostella, Chilo spp., Scirpophaga incertulas, Sesamia inferens, Cnaphalocrocis medinalis, Ostrinia nubilalis, Cydia pomonella, Carposina niponensis, Adoxophyes orana, Archips argyrospilus, Pandemis heparana, Epinotia aporema, Eupoecilia ambiguella, Lobesia botrana, Polychrosis viteana, Pectinophora gossypiella, Pieris rapae, Phyllonorycter spp., Leucoptera malifoliella, Phyllocnisitis citrella • Coleoptera—Diabrotica spp., Leptinotarsa decemlineata, Oulema oryzae, Anthonomus grandis, Lissorhoptrus oryzophilus, Agriotes spp., Melanotus communis, Popillia japonica, Cyclocephala spp., Tribolium spp. • Homoptera—Aphis spp., Myzus persicae, Rhopalosiphum spp., Dysaphis plantaginea, Toxoptera spp., Macrosiphum euphorbiae, Aulacorthum solani, Sitobion avenae, Metopolophium dirhodum, Schizaphis graminum, Brachycolus noxius, Nephotettix spp., Nilaparvata lugens, Sogatella furcifera, Laodelphax striatellus, Bemisia tabaci, Trialeurodes vaporariorum, Aleurodes proletella, Aleurothrixus floccosus, Quadraspidiotus perniciosus, Unaspis yanonensis, Ceroplastes rubens, Aonidiella aurantii • Hemiptera—Lygus spp., Eurygaster maura, Nezara viridula, Piezodorus guildingi, Leptocorisa varicornis • Thysanoptera—Frankliniella occidentalis, Thrips spp., Scirtothrips dorsalis • Isoptera—Reticulitermes flavipes, Coptotermes formosanus • Orthoptera—Blattella germanica, Blatta orientalis, Gryllotalpa spp. • Diptera—Liriomyza spp., Musca domestica, Aedes spp., Culex spp., Anopheles spp. • Hymenoptera—Iridomyrmex humilis, Solenopsis spp., Monomorium pharaonis, Atta spp., Pogonomyrmex spp., Camponotus spp. • Siphonaptera—Ctenophalides spp., Pulex irritans • Acarina—Tetranychus spp., Panonychus spp., Eotetranychus carpini, Phyllocoptruta oleivora, Aculus pelekassi, Brevipalpus phoenicis, Boophilus spp., Dermacentor variabilis, Rhipicephalus sanguineus, Amblyomma americanum, Ixodes spp., Notoedres cati, Sarcoptes scabiei, Dermatophagoides spp. […]

[2] = tested on: Beet Armyworm (Spodoptera exigua); assay: Insecticidal test for beet armyworm, treated lepidopteran diet; parameters: key: A: 90–100; B: 80–89; C: 70–79; D: 60–69; E: 50–59; F: less than 50; G: Inactive; conditions: on diet surface, second-instar larvae, 5 days
Text: as §1

[3] = tested on: Two-spotted Spider Mite (Tetranychus urticae); assay: Insecticidal test for two-spotted spider mite, ovicide method; parameters: key: A: 90–100; B: 80–89; C: 70–79; D: 60–69; E: 50–59; F: less than 50; G: Inactive; conditions: cotton leaf discs, 6 days
Description: Insecticidal Test for Two-spotted Spider Mite (Tetranychus urticae)
Ten adult female two-spotted spider mites were placed on eight 2.2 cm leaf discs of cotton leaf, allowed to oviposit over 24 hours, and thereafter removed. […] Discs were placed on an agar substrate and held at 24° C. and 90% RH for 6 days.

[4] = tested on: Cotton Aphid (Aphis gossypii); assay: Insecticidal test for cotton aphid, spray on infested squash cotyledons; conditions: 50 ppm spray, 3 days
Description: Insecticidal Test for Cotton Aphid (Aphis gossypii)
To prepare spray solutions, 1 mg of each test compound was dissolved into 1 mL of a 90:10 acetone:ethanol solvent. This 1 mL of chemical solution was added to 19 mL of water containing 0.05% Tween 20 surfactant to produce a 50 ppm spray solution.
Squash cotyledons were infested with cotton aphid (all life stages) 16–20 hours prior to application of spray solution. The solution was sprayed on both sides of each infested squash cotyledon (0.5 mL×2 each side) with a sweeping action until runoff. The plants were allowed to air dry and held for 3 days in a controlled room at 26° C. and 40% RH after which time the test was graded. Grading was by actual count using a dissecting microscope and comparison of test counts to the untreated check. Results are given in Tables 1–4 as percent control based on population reduction versus the untreated.

[5] = tested on: Sweetpotato Whitefly (Bemisia tabacia); assay: Insecticidal test for sweetpotato whitefly, spray on cotton plants; parameters: key: A: 90–100; B: 80–89; C: 70–79; D: 60–69; E: 50–59; F: less than 50; G: Inactive; conditions: 200 ppm spray, 13 days, large nymphs
Description: Insecticidal Test for Sweetpotato Whitefly (Bemisia tabacia)
Four mg of each test compound was dissolved by adding 4 mL of a 90:10 acetone:ethanol solvent mixture to the vial containing the sample compound. This solution was added to 16 mL of water containing 0.05% Tween 20 surfactant to produce 20 mL of an 200 ppm spray solution.
Five-week-old cotton plants reared in a greenhouse were stripped of all foliage except for the two uppermost true leaves that were greater than 5 cm in diameter. These plants were then placed into a laboratory colony of whiteflies for two days for oviposition by the colony females. All whiteflies were then removed from the test plants with pressurized air. The spray solution was then applied to the test plants with a hand-held syringe fitted with hollow cone nozzle. One mL spray solution was applied to each leaf top and bottom for a total of 4 mL per plant. Four replications of each test compound utilized a total of 16 mL spray solution. Plants were air dried and then placed in a holding chamber (28° C. and 60% RH) for 13 days. Compound efficacy was evaluated by counting, under an illuminated magnifying glass, the number of large nymphs (3rd–4th instar) per leaf.
Percent control based on reduction of large nymphs of a test compound compared to solution-only (no test compound) sprayed plants is reported in Tables 1–4.

[6] = tested on: Tobacco Budworm (Heliothis virescens); assay: Insecticidal test for tobacco budworm, treated cotton cotyledon leaf disc; parameters: key: A: 90–100; B: 80–89; C: 70–79; D: 60–69; E: 50–59; F: less than 50; G: Inactive; conditions: cotton cotyledon leaf-dip, 2nd instar larvae, 5 days
Text: as §1

Row | SMILES | CL: activity at 400 ppm against cabbage looper (% control rating) [1] | BAW: activity at 400 ppm against beet armyworm (% control rating) [2] | SM: activity against two-spotted spider mite (% control rating) [3] | CA: activity at 50 ppm against cotton aphid (% control rating) [4] | WF: activity at 200 ppm against whitefly (% control rating) [5] | TBW: activity at 400 ppm against tobacco budworm (% control rating) [6]
1 | Cc1c(-c2nc(-c3c(F)cccc3Cl)nn2C)csc1-c1ccc(OC(F)(F)C(Cl)Cl)cc1 | A (90–100) | A (90–100) | A (90–100) | B (80–89) | A (90–100) | A (90–100)
2 | Cc1c(-c2nc(-c3c(F)cccc3Cl)nn2C)csc1-c1ccc(F)cc1 | D (60–69) | G | B (80–89) | B (80–89) | F (less than 50) | F (less than 50)
3 | Cc1c(-c2ccc(OC(F)(F)C(F)C(F)(F)F)cc2)csc1-c1nc(-c2c(F)cccc2Cl)nn1C (stereo not drawn) | A (90–100) | A (90–100) | A (90–100) | D (60–69) | A (90–100) | A (90–100)
4 | Cc1c(-c2nc(-c3c(F)cccc3Cl)nn2C)csc1-c1ccc(Oc2ccccc2)cc1 | A (90–100) | A (90–100) | A (90–100) | A (90–100) | A (90–100) | F (less than 50)
5 | Cc1c(-c2nc(-c3c(F)cccc3Cl)nn2C)csc1-c1ccc(F)cc1F [drawing 224] | A (90–100) | G | G | A (90–100) | G | D (60–69)
6 | Cc1cc(-c2ccc(OC(F)(F)C(F)Cl)cc2)sc1-c1nc(-c2c(F)cccc2Cl)nn1C (stereo not drawn) | A (90–100) | A (90–100) | A (90–100) | D (60–69) | F (less than 50) | A (90–100)
7 | CSc1ccc(-c2scc(-c3nc(-c4c(F)cccc4Cl)nn3C)c2C)cc1 | G | D (60–69) | E (50–59) | B (80–89) | G | G
8 | Cc1sc(-c2ccc(Cl)cc2F)cc1-c1nc(-c2c(F)cccc2Cl)nn1C | A (90–100) | A (90–100) | A (90–100) | B (80–89) | F (less than 50) | G
9 | Cn1nc(-c2c(F)cccc2Cl)nc1-c1csc(-c2ccc(OC(F)(F)F)cc2F)c1 | F (less than 50) | G | F (less than 50) | C (70–79) | G | G
10 | Cc1c(-c2nc(-c3c(F)cccc3Cl)nn2C)csc1-c1ccc(C(F)(F)F)cc1F | A (90–100) | A (90–100) | F (less than 50) | A (90–100) | A (90–100) | B (80–89)
11 | Cc1cc(-c2ccc(Cl)cc2F)sc1-c1nc(-c2c(F)cccc2Cl)nn1C | A (90–100) | A (90–100) | A (90–100) | C (70–79) | G | F (less than 50)
